For assay [1], the target named is T1, Ba/F3-KIF5B-RET cell (Homo sapiens, UniProt P07949).
T1 construct: fused on or other part: P33176 (Kinesin-1 heavy chain)
The experiment in a line: CellTiter-Glo luminescence assay for inhibitory activity against Ba/F3-KIF5B-RET cell. It counts as cell-based. As to conditions: Ba/F3-KIF5B-RET cells, 72 h. The source says:
(c) In Vitro Screening Experiment—CellTiter-Glo Luminescence Assay for Testing the Inhibitory Activity of Compounds Against Ba/F3-KIF5B-RET Cell Experimental Procedure: 1. The mammalian cell expression vector containing human KIF5B-RET cDNA was introduced into Ba/F3 cells using the Neon® transfection system method, and the surviving clones screened by puromycin were subjected to cell growth inhibitory function experiments and Western blotting to verify cell lines with stable and high expression of RET. 2. […] 3. The test compound (5 mM stock) was diluted 2.5 folds to 2 mM with 100% dimethyl sulfoxide; and the compound was diluted into 10 concentrations at an equal ratio of 1:3 in a 384-well dilution plate. 4. […] 6. […] 7. By fitting the data with XLFit 5.0 based on the parameters formula, the IC50 value was calculated as: Y=Bottom+(Top−Bottom)/(1+10^((Log IC50−X)*HillSlope)).

Assay [2] deals with RET (Homo sapiens, UniProt P07949). The experiment in a line: HTRF method for testing the inhibitory activity of compounds against RET. It counts as biochemical. Particulars: IC50 by nonlinear regression, read-out: RET kinase activity. As for the experimental part: (a) In Vitro Screening Experiment-HTRF Method for Testing the Inhibitory Activity of Compounds Against RET Experimental Procedure: 1. […] 2. The test compound (5 mM stock solution) was diluted 5 folds to 1 mM with 100% dimethyl sulfoxide; the compound was diluted into 10 concentrations at an equal ratio of 1:3 in a 384-well dilution plate. 3. 0.2 μL of the serially diluted compound was added to a 384-well plate using an Echo 550 pipetting system, 2 replicate wells for each concentration, and the final concentration of dimethyl sulfoxide was 0.5% (v/v). […] 6. […] The reaction solution was centrifuged at 1000 g for 30 s, and then sealed, and incubated at room temperature for 30 min. 8. […] 10. […] 11. […] IC50 was calculated with software GraphPad 6.0 by fitting inhibition values and logarithms of compound concentrations to a nonlinear regression (dose response−variable slope).

Assay [3] addresses VEGFR2 (Homo sapiens, UniProt P35968). The experiment in a line: HTRF method for testing the inhibitory activity of compounds against VEGFR2. As to conditions: IC50 by nonlinear regression, read-out: VEGFR2 kinase activity. In kind it is biochemical. The protocol:
(b) In Vitro Screening Experiment—HTRF Method for Testing the Inhibitory Activity of Compounds Against VEGFR2 Experimental Procedure: 1. […] The test compound (5 mM stock solution) was diluted 5 folds to 1 mM with 100% dimethyl sulfoxide; the compound was diluted into 10 concentrations at an equal ratio of 1:3 in a 384-well dilution plate. 3. […] 6. […] The reaction solution was centrifuged at 1000 g for 30 s, and then sealed, and incubated at room temperature for 40 min. 8. […] 10. […] 11. […] 12. IC50 was calculated with software GraphPad 6.0 by fitting inhibition values and logarithms of compound concentrations to a nonlinear regression (dose response−variable slope).

This is an account of results in US12552785B2, “Pyrazolo[1,5-α]pyridine derivative, preparation method therefor, and composition and use thereof” (SHENZHEN ZHONGGE BIOLOGICAL TECHNOLOGY CO., LTD., priority 2020, dated 2026).

RET, sequence (P07949 29-1114): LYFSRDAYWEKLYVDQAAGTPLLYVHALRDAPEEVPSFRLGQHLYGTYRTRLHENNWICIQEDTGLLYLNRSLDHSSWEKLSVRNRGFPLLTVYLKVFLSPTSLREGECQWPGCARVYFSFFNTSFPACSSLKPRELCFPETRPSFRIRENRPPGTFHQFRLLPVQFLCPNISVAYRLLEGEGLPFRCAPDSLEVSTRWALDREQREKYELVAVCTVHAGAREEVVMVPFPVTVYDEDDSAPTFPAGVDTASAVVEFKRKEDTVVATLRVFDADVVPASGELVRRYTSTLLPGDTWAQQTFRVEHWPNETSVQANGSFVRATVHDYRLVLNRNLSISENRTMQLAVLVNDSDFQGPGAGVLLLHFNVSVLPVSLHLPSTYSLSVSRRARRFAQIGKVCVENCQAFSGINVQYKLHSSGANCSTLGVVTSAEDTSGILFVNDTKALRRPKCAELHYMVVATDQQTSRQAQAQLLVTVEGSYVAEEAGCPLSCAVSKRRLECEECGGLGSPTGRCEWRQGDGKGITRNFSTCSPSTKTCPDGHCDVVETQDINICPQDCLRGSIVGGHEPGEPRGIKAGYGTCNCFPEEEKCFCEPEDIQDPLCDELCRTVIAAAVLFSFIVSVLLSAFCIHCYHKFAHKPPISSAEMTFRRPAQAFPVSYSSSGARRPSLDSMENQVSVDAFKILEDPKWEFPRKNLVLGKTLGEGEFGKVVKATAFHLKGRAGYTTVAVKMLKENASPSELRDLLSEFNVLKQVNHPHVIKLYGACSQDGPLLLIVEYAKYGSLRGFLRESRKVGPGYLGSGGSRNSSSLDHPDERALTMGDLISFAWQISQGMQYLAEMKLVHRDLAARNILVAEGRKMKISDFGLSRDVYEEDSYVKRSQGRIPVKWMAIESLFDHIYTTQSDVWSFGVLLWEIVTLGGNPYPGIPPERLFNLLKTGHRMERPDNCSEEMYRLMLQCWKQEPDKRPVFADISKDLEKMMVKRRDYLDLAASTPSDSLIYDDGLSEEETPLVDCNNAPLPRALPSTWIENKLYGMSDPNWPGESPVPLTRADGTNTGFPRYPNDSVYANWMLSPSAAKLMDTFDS
T1 sequence (P07949 whole entry, change not shown, the tested form may be a part): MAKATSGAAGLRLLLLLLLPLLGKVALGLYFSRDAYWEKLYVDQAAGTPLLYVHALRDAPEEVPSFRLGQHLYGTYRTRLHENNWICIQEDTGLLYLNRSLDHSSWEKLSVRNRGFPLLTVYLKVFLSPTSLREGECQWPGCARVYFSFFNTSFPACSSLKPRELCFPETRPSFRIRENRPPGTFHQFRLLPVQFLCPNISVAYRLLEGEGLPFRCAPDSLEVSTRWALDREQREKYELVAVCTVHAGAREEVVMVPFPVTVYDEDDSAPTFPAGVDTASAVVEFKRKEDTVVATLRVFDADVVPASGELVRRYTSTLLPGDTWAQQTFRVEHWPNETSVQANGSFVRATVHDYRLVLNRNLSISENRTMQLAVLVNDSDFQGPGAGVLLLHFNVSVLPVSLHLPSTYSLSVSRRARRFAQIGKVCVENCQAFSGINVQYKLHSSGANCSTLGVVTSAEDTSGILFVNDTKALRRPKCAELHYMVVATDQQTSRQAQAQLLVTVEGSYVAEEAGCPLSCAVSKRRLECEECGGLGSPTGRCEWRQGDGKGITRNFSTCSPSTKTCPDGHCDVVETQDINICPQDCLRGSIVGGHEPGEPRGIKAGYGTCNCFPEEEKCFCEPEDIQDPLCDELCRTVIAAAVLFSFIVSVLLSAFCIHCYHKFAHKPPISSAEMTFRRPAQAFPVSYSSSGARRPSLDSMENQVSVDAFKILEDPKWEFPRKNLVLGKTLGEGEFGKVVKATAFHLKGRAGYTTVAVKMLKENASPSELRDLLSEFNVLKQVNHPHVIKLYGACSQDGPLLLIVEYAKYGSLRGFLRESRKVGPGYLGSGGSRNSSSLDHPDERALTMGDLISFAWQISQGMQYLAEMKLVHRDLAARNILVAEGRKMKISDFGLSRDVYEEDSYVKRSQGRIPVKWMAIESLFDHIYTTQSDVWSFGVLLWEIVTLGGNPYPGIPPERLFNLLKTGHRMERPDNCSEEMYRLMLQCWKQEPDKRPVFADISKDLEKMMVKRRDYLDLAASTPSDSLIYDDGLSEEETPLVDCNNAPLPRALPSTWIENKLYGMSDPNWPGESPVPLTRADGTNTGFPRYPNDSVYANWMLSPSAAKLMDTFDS
VEGFR2, sequence (P35968 20-1356, species assumed): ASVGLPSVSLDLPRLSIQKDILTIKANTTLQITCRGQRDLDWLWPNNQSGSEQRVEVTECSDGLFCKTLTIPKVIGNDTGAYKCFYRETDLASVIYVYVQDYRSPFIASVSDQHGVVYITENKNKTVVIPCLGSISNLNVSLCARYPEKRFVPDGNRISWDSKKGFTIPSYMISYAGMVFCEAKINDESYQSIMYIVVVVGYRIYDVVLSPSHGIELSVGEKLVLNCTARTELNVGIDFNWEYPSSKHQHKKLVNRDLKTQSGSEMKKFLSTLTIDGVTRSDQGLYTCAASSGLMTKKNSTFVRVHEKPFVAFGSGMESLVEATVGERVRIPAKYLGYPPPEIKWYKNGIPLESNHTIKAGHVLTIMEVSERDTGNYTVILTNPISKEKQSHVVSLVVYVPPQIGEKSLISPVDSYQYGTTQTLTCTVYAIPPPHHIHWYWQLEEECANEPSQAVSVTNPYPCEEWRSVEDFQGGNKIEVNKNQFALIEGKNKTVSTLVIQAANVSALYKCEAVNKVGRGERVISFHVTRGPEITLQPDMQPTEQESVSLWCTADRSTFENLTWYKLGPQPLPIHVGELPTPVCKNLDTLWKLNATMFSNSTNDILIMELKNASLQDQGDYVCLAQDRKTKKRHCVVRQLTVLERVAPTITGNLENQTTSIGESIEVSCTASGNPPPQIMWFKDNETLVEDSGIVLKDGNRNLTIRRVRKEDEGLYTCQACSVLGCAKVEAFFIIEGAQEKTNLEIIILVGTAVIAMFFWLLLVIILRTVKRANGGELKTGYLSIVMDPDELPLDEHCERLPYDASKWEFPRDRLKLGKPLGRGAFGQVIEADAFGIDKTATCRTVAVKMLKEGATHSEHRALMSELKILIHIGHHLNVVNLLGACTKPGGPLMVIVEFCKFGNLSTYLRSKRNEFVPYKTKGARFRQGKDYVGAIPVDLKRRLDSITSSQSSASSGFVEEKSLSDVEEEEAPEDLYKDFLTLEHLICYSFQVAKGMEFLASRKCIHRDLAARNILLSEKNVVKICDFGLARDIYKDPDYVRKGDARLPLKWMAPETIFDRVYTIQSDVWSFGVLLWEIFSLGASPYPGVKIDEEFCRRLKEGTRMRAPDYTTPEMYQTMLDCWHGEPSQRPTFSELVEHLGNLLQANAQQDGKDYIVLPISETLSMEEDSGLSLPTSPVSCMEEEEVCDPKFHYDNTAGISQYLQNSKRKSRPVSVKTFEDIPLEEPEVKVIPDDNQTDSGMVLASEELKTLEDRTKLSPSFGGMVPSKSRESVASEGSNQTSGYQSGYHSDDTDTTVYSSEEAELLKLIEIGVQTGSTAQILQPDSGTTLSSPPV

Consider `CC(C)(O)COc1cc(-c2ccc(NCc3ccc(-n4cc(F)cn4)nc3)nc2)c2c(C#N)cnn2c1` [Compound 1, 4-(6-(((6-(4-fluoro-1H-pyrazol-1-yl)pyridin-3-yl)methyl)amino)pyridin-3-yl)-6-(2-hydroxy-2-methylpropoxy)pyrazolo[1,5-a]pyridine-3-carbonitrile], for which it took 0.0139 µM to inhibit growth in assay [1] by half (GI50). Further, the IC50 in assay [2] came to 0.00034 µM; in assay [3] it was 0.00737 µM.

In turn, `C[C@H](Nc1ccc(-c2cc(OCC(C)(C)O)cn3ncc(C#N)c23)cn1)c1ccc(-n2cc(F)cn2)nc1` [Compound 2, (S)-4-(6-((1-(6-(4-fluoro-1H-pyrazol-1-yl)pyridin-3-yl)ethyl)amino)pyridin-3-yl)-6-(2-hydroxy-2-methylpropoxy)pyrazolo[1,5-a]pyridine-3-carbonitrile] displayed a GI50 in assay [1] of 0.0107 µM. For the same molecule, the IC50 in assay [2] was determined as 0.00046 µM; in assay [3], 0.00351 µM.

For the molecule `N#Cc1cnn2cc(OC[C@H]3CNCCO3)cc(-c3ccc(NCc4ccc(-n5cc(F)cn5)nc4)nc3)c12` [Compound 3], in assay [1], the GI50 was 0.018 µM. In addition, the IC50 turned out to be 0.00019 µM in assay [2] and 0.00108 µM in assay [3].

Consider `C[C@H](Nc1ccc(-c2cc(OC[C@H]3CNCCO3)cn3ncc(C#N)c23)cn1)c1ccc(-n2cc(F)cn2)nc1` [Compound 4], for which, in assay [1], growth was halved (GI50) at 0.012 µM. For the same molecule, the IC50 in assay [2] worked out at 0.00018 µM; in assay [3], 0.00031 µM.

`C[C@@H](Nc1ccc(-c2cc(OCC(C)(C)O)cn3ncc(C#N)c23)cn1)c1ccc(-n2cc(F)cn2)nc1` [Compound 5, (R)-4-(6-((1-(6-(4-fluoro-1H-pyrazol-1-yl)pyridin-3-yl)ethyl)amino)pyridin-3-yl)-6-(2-hydroxy-2-methylpropoxy)pyrazolo[1,5-a]pyridine-3-carbonitrile] yielded a GI50 in assay [1] of 0.0851 µM. Moreover, the IC50 in assay [2] was 0.0063 µM; in assay [3], 0.0447 µM.

In assay [1], `CC(Nc1ccc(-c2cc(OCC(C)(C)O)cn3ncc(C#N)c23)cn1)c1ccc(-n2cc(F)cn2)nc1` (stereo not drawn) [Compound 6] displayed a 50% growth inhibitory concentration (GI50) of 0.0505 µM. Moreover, the figures for the IC50 in assay [2] and in assay [3] were 0.0012 µM and 0.0118 µM, respectively.

`CC(C)(O)COc1cc(-c2ccc(NCc3ccc(-n4ccnc4)nc3)nc2)c2c(C#N)cnn2c1` [Compound 7] had a GI50 in assay [1] of 0.203 µM. The figures for the IC50 in assay [2] and in assay [3] were 0.00714 µM and 0.0721 µM, respectively.

Regarding `CC(C)(O)COc1cc(-c2ccc(NCc3ccc(N4CCCC4=O)nc3)nc2)c2c(C#N)cnn2c1` [Compound 8, 6-(2-hydroxy-2-methylpropoxy)-4-(6-((6-(2-oxopyrrolidin-1-yl)pyridin-3-yl)methylamino)pyridine-3-yl)pyrazolo[1,5-a]pyridine-3-carbonitrile], growth in assay [1] was halved (GI50) at 0.0685 µM. Besides, the values for the IC50 in assay [2] and in assay [3] were 0.0094 µM and 0.17 µM, respectively.

On to `CC(C)(O)COc1cc(-c2ccc(NCc3ccc(-c4cccnc4)nc3)nc2)c2c(C#N)cnn2c1` [Compound 9, 4-(6-(([2,3′-bipyridyl]-5-ylmethyl)amino)pyridin-3-yl)-6-(2-hydroxy-2-methylpropoxy)pyrazole[1,5-a]pyridine-3-carbonitrile], for which growth in assay [1] was halved (GI50) at 0.145 µM. The IC50 in assay [2] was determined as 0.0196 µM; in assay [3], 0.116 µM.

In turn, `CC(C)(O)COc1cc(-c2ccc(NCc3ccc(N4CCCC4)nc3)nc2)c2c(C#N)cnn2c1` [Compound 10, 6-(2-hydroxy-2-methylpropoxy)-4-(6-(((6-(pyrrolidin-1-yl)pyridin-3-yl)methyl)amino)pyridine-3-yl)pyrazo[1,5-a]pyridine-3-carbonitrile] returned a GI50 in assay [1] of 0.0073 µM. Further, the IC50 amounted to 0.00208 µM in assay [2] and 0.0908 µM in assay [3].

As to `Cc1cn(-c2ccc(CNc3ccc(-c4cc(OCC(C)(C)O)cn5ncc(C#N)c45)cn3)cn2)cn1` [Compound 11], the GI50 in assay [1] was 0.613 µM. For the same molecule, the IC50 in assay [2] came out at 0.0125 µM; in assay [3], 0.11 µM.

As for `CC(C)(O)COc1cc(-c2ccc(NCc3ccc(N4CCOCC4)nc3)nc2)c2c(C#N)cnn2c1` [Compound 12], in assay [1], it took 0.0755 µM to inhibit growth by half (GI50). For the same molecule, the figures for the IC50 in assay [2] and in assay [3] were 0.0128 µM and 0.107 µM, respectively.

In turn, `CC(C)(O)COc1cc(-c2ccc(NCc3ccc4cccnc4c3)nc2)c2c(C#N)cnn2c1` [Compound 13] displayed a 50% growth inhibitory concentration (GI50) in assay [1] of 0.0508 µM. Besides, the results for the IC50 in assay [2] and in assay [3] were 0.00517 µM and 0.136 µM, respectively.

Consider `C=CCOc1cc(-c2ccc(N(C)[C@@H](C)c3ccc(-n4cc(F)cn4)nc3)nc2)c2c(C#N)cnn2c1` [Compound 31, (S)-4-(6-((1-(6-(4-fluoro-1H-pyrazol-1-yl)pyridin-3-yl)ethyl)(methyl)amino)pyridine-3-yl)-6-allyloxypyrazolo[1,5-a]pyridine-3-carbonitrile], for which the IC50 is 0.269 µM in assay [2] and more than 5 µM in assay [3].

With `Cc1cnn(-c2ccc([C@H](C)N(C)c3ccc(-c4cc(OCC(C)(C)O)cn5ncc(C#N)c45)cn3)cn2)c1` [Compound 37], in assay [1], the GI50 worked out at 0.0186 µM. Further, the IC50 in assay [3] worked out at 0.27 µM.

As to `COc1cc(-c2ccc(N(C)[C@@H](C)c3ccc(-n4cc(F)cn4)nc3)nc2)c2c(C#N)cnn2c1` [Compound 40, (S)-4-(6-((1-(6-(4-fluoro-1H-pyrazol-1-yl)pyridin-3-yl)ethyl)(methyl)amino)pyridine-3-yl)-6-methoxypyrazolo[1,5-a]pyridine-3-carbonitrile], the IC50 in assay [2] was 0.00083 µM; in assay [3], 0.0483 µM.

As for `C[C@@H](c1ccc(-n2cc(F)cn2)nc1)N(C)c1ccc(-c2cc(OCCF)cn3ncc(C#N)c23)cn1` [Compound 41, (S)-4-(6-((1-(6-(4-fluoro-1H-pyrazol-1-yl)pyridin-3-yl)ethyl)(methyl)amino)pyridine-3-yl)-6-(2-fluoroethoxy)pyrazolo[1,5-a]pyridine-3-carbonitrile], the IC50 worked out at 0.00034 µM in assay [2] and 0.0497 µM in assay [3].

Take `CCN(CC)c1ccc([C@H](C)N(C)c2ccc(-c3cc(OCC(C)(C)O)cn4ncc(C#N)c34)cn2)cn1` [Compound 42, (S)-4-(6-((1-(6-(diethylamino)pyridin-3-yl)ethyl)(methyl)amino)pyridin-3-yl)-6-(2-hydroxy-2-methylpropoxy)pyrazolo[1,5-a]pyridine-3-carbonitrile]: the IC50 in assay [2] worked out at 0.018 µM; in assay [3], 0.199 µM.

In turn, `C[C@@H](c1ccc(-n2cc(Cl)cn2)nc1)N(C)c1ccc(-c2cc(OCC(C)(C)O)cn3ncc(C#N)c23)cn1` [Compound 45, (S)-4-(6-((1-(6-(4-chloro-1H-pyrazol-1-yl)pyridin-3-yl)ethyl)(methyl)amino)pyridine-3-yl)-6-(2-hydroxy-2-methylpropoxy)pyrazo[1,5-a]pyridine-3-carbonitrile] showed a GI50 in assay [1] of 0.0393 µM. Besides, in assay [3], the IC50 worked out at 1.98 µM.

Consider `CNc1cc(-c2ccc(N(C)[C@@H](C)c3ccc(-n4cc(F)cn4)nc3)nc2)c2c(C#N)cnn2c1` [Compound 52, (S)-4-(6-((1-(6-(4-fluoro-1H-pyrazol-1-yl)pyridin-3-yl)ethyl)(methyl)amino)pyridine-3-yl)-6-(methylamino)pyrazolo[1,5-a]pyridine-3-carbonitrile], for which the IC50 was found to be 0.00029 µM in assay [2] and 0.00562 µM in assay [3].

On to `COCCOc1cc(-c2ccc(N(C)[C@@H](C)c3ccc(-n4cc(F)cn4)nc3)nc2)c2c(C#N)cnn2c1` [Compound 54, (S)-4-(6-((1-(6-(4-fluoro-1H-pyrazol-1-yl)pyridin-3-yl)ethyl)(methyl)amino)pyridine-3-yl)-6-(2-methoxyethoxy)pyrazolo[1,5-a]pyridine-3-carbonitrile], for which the IC50 came to 0.0003 µM in assay [2] and 0.0211 µM in assay [3].

With `C[C@@H](c1ccc(-n2cc(F)cn2)nc1)N(C)c1ccc(-c2cc(N3CCCC3)cn3ncc(C#N)c23)cn1` [Compound 59], the figures for the IC50 in assay [2] and in assay [3] were 0.00349 µM and 0.0643 µM, respectively.

On to `Cc1ccc([C@H](C)N(C)c2ccc(-c3cc(OCC(C)(C)O)cn4ncc(C#N)c34)cn2)cn1` [Compound 63], for which the IC50 in assay [2] was 0.00456 µM; in assay [3], 0.361 µM.

As for `C#Cc1cc(-c2ccc(N(C)[C@@H](C)c3ccc(-n4cc(F)cn4)nc3)nc2)c2c(C#N)cnn2c1` [Compound 65], the IC50 in assay [2] was found to be 0.00266 µM; in assay [3], 0.78 µM.

As to `CCc1cc(-c2ccc(N(C)[C@@H](C)c3ccc(-n4cc(F)cn4)nc3)nc2)c2c(C#N)cnn2c1` [Compound 66], the IC50 turned out to be 0.00435 µM in assay [2] and 0.241 µM in assay [3].
